Data as given in US20230115350A1 (Cedilla Therapeutics, Inc., priority 2021, published 2023).

Target: TEAD1 protein (YAP Binding Domain) (Homo sapiens, UniProt P28347)
Experiment: TEAD1 lipid pocket compound displacement assay (TR-FRET, Cy5-probe)
Details: 60 minutes incubation at room temperature; TR-FRET 665 nm/620 nm; read-out: CDA IC50
Protocol: Compound Displacement Assay.
A TEAD1 lipid pocket displacement assay was carried out according to the following protocol. Purified His-tagged TEAD1 protein (YAP Binding Domain) was pre-mixed with a Cy5-probe (Cy5-conjugated to a small molecule that binds in the TEAD1 lipid pocket) and Terbium-labeled anti-His antibody (Cisbio Cat 61HI2TLB). The binding of the Cy5-probe to anti-His-Tb/His-tag TEAD1 complex yielded a TR-FRET signal. […] After 60 minutes incubation at room temperature of compounds with the His-TEAD1/anti-His-Tb/Cy5-probe complex, the plate was read on a plate reader (BMG ClarioStar Cat 430-1300) using TR-FRET mode with wavelengths of 665 nm/620 nm. The potency of compounds as TEAD1 lipid pocket binders was determined by IC50 value generated using a non-linear 4 parameter curve fit.

Sequence of TEAD1 protein (YAP Binding Domain) (P28347 209-426 limits assumed): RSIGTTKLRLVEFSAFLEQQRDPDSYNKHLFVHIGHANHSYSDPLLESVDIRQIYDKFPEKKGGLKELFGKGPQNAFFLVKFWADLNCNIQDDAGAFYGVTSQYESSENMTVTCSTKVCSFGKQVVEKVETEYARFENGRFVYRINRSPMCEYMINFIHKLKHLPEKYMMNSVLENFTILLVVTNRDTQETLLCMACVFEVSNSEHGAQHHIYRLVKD

Work on C=CC(=O)Nc1ccc(OCc2cc(C(=O)OC)ccc2Cl)c(F)c1 [Compound 87, methyl 3-((4-acrylamido-2-fluorophenoxy)methyl)-4-chlorobenzoate] yielded an IC50 of 500 to 2000 nM.

C=CC(=O)Nc1ccc(OCc2cnc(C)s2)c(F)c1 [Compound 64, N-(3-fluoro-4-((2-methylthiazol-5-yl)methoxy)phenyl)acrylamide] showed an IC50 greater than 2000 nM.

For C=CC(=O)Nc1ccc(OCc2cccnc2C)c(F)c1 [Compound 75, N-(3-fluoro-4-((2-methylpyridin-3-yl)methoxy)phenyl)acrylamide], the IC50 was greater than 2000 nM.

C#Cc1cccc(COc2ccc(NC(=O)C=C)cc2F)c1 [Compound 25, N-(4-((3-ethynylbenzyl)oxy)-3-fluorophenyl)acrylamide] gave an IC50 of 250 to 500 nM.

Work on C=CC(=O)Nc1ccc(OCc2c(Cl)cccc2Cl)c(F)c1 [Compound 86, N-(4-((2,6-dichlorobenzyl)oxy)-3-fluorophenyl)acrylamide] yielded an IC50 greater than 2000 nM.

Compound O=C(O)c1ccc(OCC2CCC(F)(F)CC2)c(F)c1 [Compound 35, 4-((4,4-difluorocyclohexyl)methoxy)-3-fluorobenzoic acid] has an IC50 of 250 to 500 nM.

O=C(O)c1ccc(F)c(OCC2CCC(F)(F)CC2)c1 [Compound 36, 3-((4,4-difluorocyclohexyl)methoxy)-4-fluorobenzoic acid] gave an IC50 of 250 to 500 nM.

With C=CC(=O)Nc1ccc(OCc2cccc(F)c2)c(OC)c1 [Compound 6, N-(4-((3-fluorobenzyl)oxy)-3-methoxyphenyl)acrylamide] the IC50 was 250 to 500 nM.

C=CC(=O)Nc1ccc(OCc2ccc(C)nc2)c(F)c1 [Compound 69, N-(3-fluoro-4-((6-methylpyridin-3-yl)methoxy)phenyl)acrylamide] was tested, and the IC50 was greater than 2000 nM.

C=CC(=O)Nc1ccc(OCc2ccsc2Cl)c(F)c1 [Compound 61, N-(4-((2-chlorothiophen-3-yl)methoxy)-3-fluorophenyl)acrylamide] gave an IC50 of 500 to 2000 nM.

With C=CC(=O)Nc1ccc(OCc2cccc(F)c2)c(C2CC2)c1 [Compound 2, N-(3-cyclopropyl-4-((3-fluorobenzyl)oxy)phenyl)acrylamide] the IC50 was 250 to 500 nM.

C=CC(=O)Nc1ccc(OCc2cccnc2)c(F)c1 [Compound 56, N-(3-fluoro-4-(pyridin-3-ylmethoxy)phenyl)acrylamide] was tested, and the IC50 was greater than 2000 nM.

C=CC(=O)Nc1ccc(OCc2c(F)cccc2Cl)c(F)c1 [Compound 85, N-(4-((2-chloro-6-fluorobenzyl)oxy)-3-fluorophenyl)acrylamide] gave an IC50 greater than 2000 nM.

Work on C=CC(=O)Nc1ccc(OCc2cccc(F)c2)c(Cl)c1 [Compound 46, N-(3-chloro-4-((3-fluorobenzyl)oxy)phenyl)acrylamide] yielded an IC50 of no more than 250 nM.

Work on C=CC(=O)Nc1ccc(OCc2ccc(C(=O)OC)s2)c(F)c1 [Compound 62, methyl 5-((4-acrylamido-2-fluorophenoxy)methyl)thiophene-2-carboxylate] yielded an IC50 of 500 to 2000 nM.

C=CC(=O)Nc1ccc2c(c1)N(C)CC(c1cccc(F)c1)O2 (stereo not shown) [Compound 12, N-(2-(3-fluorophenyl)-4-methyl-3,4-dihydro-2H-benzo[b][1,4]oxazin-6-yl)acrylamide] gave an IC50 greater than 2000 nM.

In the case of C=CC(=O)Nc1ccc(N(Cc2ccncc2)Cc2cccc(F)c2)c(F)c1 [Compound 18, N-(3-fluoro-4-((3-fluorobenzyl)(pyridin-4-ylmethyl)amino)phenyl)acrylamide], the IC50 is reported as greater than 2000 nM.

Compound C=CC(=O)Nc1ccc(OCc2cc(F)cc(F)c2)c(F)c1 [Compound 97, N-(4-((3,5-difluorobenzyl)oxy)-3-fluorophenyl)acrylamide] has an IC50 of 250 to 500 nM.

Compound C=CC(=O)Nc1ccc(OCc2ccccc2)c(F)c1 [Compound 52, N-(4-(benzyloxy)-3-fluorophenyl)acrylamide] has an IC50 of 250 to 500 nM.

In the case of C=CC(=O)Nc1ccc2c(c1)NCC(c1cccc(F)c1)O2 (stereo not shown) [Compound 10, N-(2-(3-fluorophenyl)-3,4-dihydro-2H-benzo[b][1,4]oxazin-6-yl)acrylamide], the IC50 is reported as greater than 2000 nM.

With C=CC(=O)Nc1ccc(OCCCC(F)(F)F)c(F)c1 [Compound 94, N-(3-fluoro-4-(4,4,4-trifluorobutoxy)phenyl)acrylamide] the IC50 was 500 to 2000 nM.

C=CC(=O)Nc1ccc(OCc2oc(=O)oc2C)c(F)c1 [Compound 65, N-(3-fluoro-4-((5-methyl-2-oxo-1,3-dioxol-4-yl)methoxy)phenyl)acrylamide] gave an IC50 greater than 2000 nM.

With C=CC(=O)Nc1ccc(OCc2cccc(F)c2)cc1OC [Compound 7, N-(4-((3-fluorobenzyl)oxy)-2-methoxyphenyl)acrylamide] the IC50 was no more than 250 nM.

In the case of C=CC(=O)Nc1ccc(OCc2cccc(F)c2)cc1CC(N)=O [Compound 11, N-(2-(2-amino-2-oxoethyl)-4-((3-fluorobenzyl)oxy)phenyl)acrylamide], the IC50 is reported as greater than 2000 nM.

Work on CS(=O)(=O)Nc1ccc(OCC2CCC(F)(F)CC2)c(F)c1 [Compound 33, N-(4-((4,4-difluorocyclohexyl)methoxy)-3-fluorophenyl)methane sulfonamide] yielded an IC50 of 500 to 2000 nM.

With C=CC(=O)Nc1ccc(Oc2ccc(C3CCCCC3)cc2)c(F)c1 [Compound 102, N-(4-(4-cyclohexylphenoxy)-3-fluorophenyl)acrylamide] the IC50 was no more than 250 nM.

C=CC(=O)Nc1ccc(OCc2cccc(F)c2)c2c1CCCO2 [Compound 14, N-(8-((3-fluorobenzyl)oxy)chroman-5-yl)acrylamide] gave an IC50 greater than 2000 nM.

O=C(NS(=O)(=O)C1CC1)c1ccc(OCC2CCC(F)(F)CC2)c(F)c1 [Compound 37, N-(cyclopropylsulfonyl)-4-((4,4-difluorocyclohexyl)methoxy)-3-fluorobenzamide] was tested, and the IC50 was 500 to 2000 nM.

With C=CC(=O)Nc1ccc(OCc2cccc(F)c2)cc1Cc1ccncc1 [Compound 13, N-(4-((3-fluorobenzyl)oxy)-2-(pyridin-4-ylmethyl)phenyl)acrylamide] the IC50 was greater than 2000 nM.

Compound C=CC(=O)Nc1ccc(OCc2cccc(F)c2F)c(F)c1 [Compound 95, N-(4-((2,3-difluorobenzyl)oxy)-3-fluorophenyl)acrylamide] has an IC50 of 250 to 500 nM.

In the case of C=CC(=O)Nc1ccc(OCc2ccncc2)c(F)c1 [Compound 66], the IC50 is reported as greater than 2000 nM.

C=CC(=O)Nc1ccc(OCc2cccc(F)c2)cc1CC1CC1 [Compound 16, N-(2-(cyclopropylmethyl)-4-((3-fluorobenzyl)oxy)phenyl)acrylamide] showed an IC50 greater than 2000 nM.

Compound C=CC(=O)Nc1ccc(OC(C)c2ccccc2Cl)c(F)c1 (stereo not shown) [Compound 123, N-(4-(1-(2-chlorophenyl)ethoxy)-3-fluorophenyl)acrylamide] has an IC50 of 500 to 2000 nM.

For C=CC(=O)Nc1ccc(OCc2cccc(F)c2)cc1 [Compound 44, N-(4-((3-fluorobenzyl)oxy)phenyl)acrylamide], the IC50 was greater than 2000 nM.

C=CS(=O)(=O)Nc1ccc(OCC2CCC(F)(F)CC2)c(F)c1 [Compound 34, N-(4-((4,4-difluorocyclohexyl)methoxy)-3-fluorophenyl) ethene sulfonamide] gave an IC50 of no more than 250 nM.

In the case of C=CC(=O)Nc1ccc(OCc2cccc(C)c2)c(F)c1 [Compound 93, N-(3-fluoro-4-((3-methylbenzyl)oxy)phenyl)acrylamide], the IC50 is reported as no more than 250 nM.

Work on C=CC(=O)Nc1ccc(OCc2cccc(Cl)c2)c(F)c1 [Compound 90, N-(4-((3-chlorobenzyl)oxy)-3-fluorophenyl)acrylamide] yielded an IC50 of no more than 250 nM.

Compound C=CC(=O)Nc1ccc2c(c1)OCC(c1cccc(F)c1)O2 (stereo not shown) [Compound 8, N-(2-(3-fluorophenyl)-2,3-dihydrobenzo[b][1,4]dioxin-6-yl)acrylamide] has an IC50 of 250 to 500 nM.

C=CC(=O)Nc1ccc(OCc2cc(OC)ccc2Cl)c(F)c1 [Compound 88, N-(4-((2-chloro-5-methoxybenzyl)oxy)-3-fluorophenyl)acrylamide] showed an IC50 of 250 to 500 nM.

Compound C=CC(=O)Nc1ccc(NC(=O)C2CCC(F)(F)CC2)c(F)c1 [Compound 32, N-(4-acrylamido-2-fluorophenyl)-4,4-difluorocyclohexanecarboxamide] has an IC50 of no more than 250 nM.

In the case of C=CC(=O)Nc1ccc(OCc2cccc(F)c2)c(C#N)c1 [Compound 130, N-(3-cyano-4-((3-fluorobenzyl)oxy)phenyl)acrylamide], the IC50 is reported as 500 to 2000 nM.

C=CC(=O)Nc1ccc(OCc2ccc(C(=O)OC)nc2)c(F)c1 [Compound 70, methyl 5-((4-acrylamido-2-fluorophenoxy)methyl)picolinate] was tested, and the IC50 was greater than 2000 nM.

C=CC(=O)Nc1ccc(OCc2cc(Cl)ccc2Cl)c(F)c1 [Compound 79, N-(4-((2,5-dichlorobenzyl)oxy)-3-fluorophenyl)acrylamide] was tested, and the IC50 was 500 to 2000 nM.

C=CC(=O)Nc1ccc(OCc2ccnc(C#N)c2)c(F)c1 [Compound 67, N-(4-((2-cyanopyridin-4-yl)methoxy)-3-fluorophenyl)acrylamide] was tested, and the IC50 was greater than 2000 nM.

In the case of C=CC(=O)Nc1cc2nc(CCc3cccc(F)c3)oc2cc1F [Compound 139, N-(6-fluoro-2-(3-fluorophenethyl)benzo[d]oxazol-5-yl)acrylamide], the IC50 is reported as 250 to 500 nM.

With C=CC(=O)Nc1cc(F)c(OCc2cccc(F)c2)cn1 [Compound 128, N-(4-fluoro-5-((3-fluorobenzyl)oxy)pyridin-2-yl)acrylamide] the IC50 was no more than 250 nM.

With C=CC(=O)Nc1ccc(C(=O)Nc2cccc(F)c2)c(F)c1 [Compound 118, 4-acrylamido-2-fluoro-N-(3-fluorophenyl)benzamide] the IC50 was greater than 2000 nM.

C=CC(=O)Nc1ccc(OCc2ccc(C(F)(F)F)cc2Cl)c(F)c1 [Compound 81, N-(4-((2-chloro-4-(trifluoromethyl)benzyl)oxy)-3-fluorophenyl)acrylamide] was tested, and the IC50 was greater than 2000 nM.

C=CC(=O)Nc1ccc(OCc2cccc(F)c2)c(F)n1 [Compound 127, N-(6-fluoro-5-((3-fluorobenzyl)oxy)pyridin-2-yl)acrylamide] showed an IC50 of no more than 250 nM.
